Test results from patent publication US10626135B2, “Crystal forms of sodium-glucose co-transporter inhibitor, processes for preparation and use thereof” (CRYSTAL PHARMACEUTICAL (SUZHOU) CO., LTD., priority 2016, dated 2020).
Converted amounts (≈) assume the structure as drawn. “Also recorded” adds a separate entry of the source.

What was measured:
[1] = Morphology assessment by polarized light microscopy; type: physicochemical
Description: The existing crystalline Form 2 and Form I in the present disclosure were tested by polarized light microscopy. The PLM results of the Form 2 and Form I were shown in FIG. 48 and FIG. 49, respectively.

[2] = Mechanical stability assessment: manual grinding, XRPD; type: physicochemical; conditions: ground manually for 5 minutes in mortar
Description: Solid sample of Form I, Form VI and the existing crystalline Form 2 were ground manually for 5 minutes in mortar. XRPD was applied to detect the crystalline form.

[3] = Particle size distribution assessment (laser particle size analyzer); type: physicochemical; conditions: for D10 / D50 / D90 / MV (average particle size based on volume): wet method, Isopar G
Description: The result of particle size distribution (PSD) in the present disclosure was acquired by laser particle size analyzer with S3500 model from Microtrac Company. The Microtrac S3500 is equipped with a SDC (Sample Delivery Controller) sampling system. This experiment uses a wet method and the dispersion medium is Isopar G. The method and parameters of the laser particle size analyzer are as follows: [table] Certain amount of Form I, Form V, Form VIII and existing crystalline Form 2 were taken for particle size distribution test, and the results were shown in Table 29.

[4] = Dynamic solubility in FaSSIF (fasted state simulated intestinal fluids, pH=6.5), HPLC; type: physicochemical; conditions: for Solubility relative to existing crystalline Form 2: FaSSIF, 1 hour
Description: (§1) The HPLC method parameters for solubility test in the present disclosure are as follows:
(§2) Saturated solutions of Form I, Form II, Form III, Form VII and the existing crystalline Form 2 in SGF (Simulated gastric fluids) were prepared. Saturated solutions of Form II, Form III, Form VII, Form VIII and the existing crystalline Form 2 in FaSSIF (Fasted state simulated intestinal fluids, pH=6.5) were prepared. After equilibrated for 1 hour, concentrations of the saturated solutions were measured by High Performance Liquid Chromatography (HPLC).

[5] = Dynamic solubility in SGF (simulated gastric fluids), HPLC; type: physicochemical; conditions: for Solubility 1 hour: Media: SGF, equilibrated for 1 hour; for Solubility relative to existing crystalline Form 2: SGF, 1 hour
Description: as §1, §2

[6] = Hygroscopicity assessment by dynamic vapor sorption (DVS); type: physicochemical; conditions: 25° C.; for Form change before and after DVS: XRPD
Description: Dynamic Vapor Sorption (DVS) is measured via a SMS (Surface Measurement Systems Ltd.) intrinsic DVS. Typical Parameters for DVS test are as follows: Temperature: 25° C. Gas and flow rate: N2, 200 mL/min dm/dt: 0.002%/min Relative Humidity (RH) range: 20% RH-95% RH-0% RH-95% RH Dynamic vapor sorption (DVS) was applied to test hygroscopicity of crystalline Form I with 13.8 mg of sample Form I at 25° C. The weight gains at each relative humidity were recorded in a cycle of 20%-95%-0%-95% RH. […] Dynamic vapor sorption (DVS) was applied to test hygroscopicity of Form VII with 11.5 mg of sample Form VII at 25° C. The weight gains at each relative humidity were recorded in a cycle of 0%-95%-0% RH.

[7] = Stability study: mixture of forms stirred in solvent systems with different water activity, residual solid by XRPD; type: physicochemical; conditions: high water activity (high humidity, ≥50% RH)
Description: The mixture of existing crystalline Form 2 disclosed in CN102112483A, Form I and Form II was stirred in several solvent systems with different water activity (aw).
It should be noted that the solvent systems for different water activity (aw) include but not limit to H2O and IPA. The same conclusion could be drawn with this experiment in other solvent systems suitable for the preparation of different water activity (aw).

[8] = Stability study: storage at 25° C./60% RH and 40° C./75% RH, XRPD; type: physicochemical; conditions: for Stability on storage: 25° C./60% RH and 40° C./75% RH for 3 months; for Solid Form after storage: 3 months
Description: Form I, Form II, Form III and Form VI were stored under different conditions of 25° C./60% RH and 40° C./75% RH for 3 months. XRPD was applied to detect the crystalline forms. The XRPD overlay of Form I, Form II, Form III and Form VI before and after stored under above two conditions were shown in FIG. 44, FIG. 45, FIG. 46 and FIG. 47, respectively.

type 1 diabetics = conditions: Phase 2, type 1 diabetics, compared with placebo; cited from earlier work
[9] = system: people with type 2 diabetes; conditions: Phase 2, type 2 diabetes, including those with renal impairment; cited from earlier work
[10] = Table 27, head prints Media:SGF, text says FaSSIF pH=6.5, equilibrated for 1 hour

SMILES	Crystal shape (PLM) [1]	Crystallinity [2]	Final form [2]	Mechanical stability [2]	Particle size distribution (description) [3]	D10 [3]	D50 [3]	D90 [3]	MV (average particle size based on volume) [3]	Solubility 1 hour [4, 10]	Solubility 1 hour [5]	Weight gain under 80% RH ([6]; cycle 20%-95%-0%-95% RH)	Form change before and after DVS ([6]; cycle 20%-95%-0%-95% RH)	Stability on storage [8]	Solid Form after storage ([8]; 25° C./60% RH)	Solid Form after storage ([8]; 40° C./75% RH)	Solubility relative to existing crystalline Form 2 [5]	Solubility relative to existing crystalline Form 2 [4]	further results
CCOc1ccc(Cc2cc([C@@H]3O[C@H](SC)[C@@H](O)[C@H](O)[C@H]3O)ccc2Cl)cc1 [Form 2, (2S,3R,4R,5S,6R)-2-(4-chloro-3-(4-ethoxybenzyl)phenyl)-6-(methylthio)tetrahydro-2H-pyran-3,4,5-triol, reference compound]	needle-like shape	Decreased (Mainly	Form 2	poor mechanical stability	wide and bimodal	2.32 μm	45.00 μm	144.4 μm	60.43 μm	130 µg/mL (≈ 306 µM)	60 µg/mL (≈ 141 µM)	–	–	–	–	–	–	–	–
CCOc1ccc(Cc2cc([C@@H]3O[C@H](SC)[C@@H](O)[C@H](O)[C@H]3O)ccc2Cl)cc1 [Form I, (2S,3R,4R,5S,6R)-2-(4-chloro-3-(4-ethoxybenzyl)phenyl)-6-(methylthio)tetrahydro-2H-pyran-3,4,5-triol]	rod-like shape	Decreased (Slightly	no crystalline form change; also recorded: Form I	better mechanical stability	narrow and normal	3.34 μm	8.97 μm	31.63 μm	14.48 μm	–	100 µg/mL (≈ 235 µM)	3.55%	substantially unchanged; also recorded: No form change	good stability	Form I (the middle	Form I (the bottom	1.7 times	–	Stability in high water activity environment [7]: more stable than Form 2
CCOc1ccc(Cc2cc([C@@H]3O[C@H](SC)[C@@H](O)[C@H](O)[C@H]3O)ccc2Cl)cc1 [Form II, (2S,3R,4R,5S,6R)-2-(4-chloro-3-(4-ethoxybenzyl)phenyl)-6-(methylthio)tetrahydro-2H-pyran-3,4,5-triol]	–	–	–	–	–	–	–	–	–	–	80 µg/mL (≈ 188 µM)	2.46%	substantially unchanged; also recorded: No form change	good stability	Form II (the middle	Form II (the bottom	–	–	Stability in high water activity environment [7]: more stable than Form 2; solubility at 1 h ([4]; fasted state simulated intestinal fluid (FaSSIF), pH 6.5, fassif, thermodynamic from solid, Table 27, head prints Media:SGF, text says FaSSIF pH=6.5, equilibrated for 1 hour): 150 µg/mL (≈ 353 µM)
CCOc1ccc(Cc2cc([C@@H]3O[C@H](SC)[C@@H](O)[C@H](O)[C@H]3O)ccc2Cl)cc1 [Form III, (2S,3R,4R,5S,6R)-2-(4-chloro-3-(4-ethoxybenzyl)phenyl)-6-(methylthio)tetrahydro-2H-pyran-3,4,5-triol]	–	–	–	–	–	–	–	–	–	180 µg/mL (≈ 424 µM)	130 µg/mL (≈ 306 µM)	0.13%	substantially unchanged; also recorded: No form change	good stability	Form III (the middle	Form III (the bottom	2.2 times	1.4 times	–
CCOc1ccc(Cc2cc([C@@H]3O[C@H](SC)[C@@H](O)[C@H](O)[C@H]3O)ccc2Cl)cc1 [Form V, (2S,3R,4R,5S,6R)-2-(4-chloro-3-(4-ethoxybenzyl)phenyl)-6-(methylthio)tetrahydro-2H-pyran-3,4,5-triol]	–	–	–	–	narrow and normal	4.38 μm	18.81 μm	72.98 μm	32.70 μm	–	–	–	–	–	–	–	–	–	–
CCOc1ccc(Cc2cc([C@@H]3O[C@H](SC)[C@@H](O)[C@H](O)[C@H]3O)ccc2Cl)cc1 [Form VI, (2S,3R,4R,5S,6R)-2-(4-chloro-3-(4-ethoxybenzyl)phenyl)-6-(methylthio)tetrahydro-2H-pyran-3,4,5-triol]	–	Decreased (Slightly	no crystalline form change; also recorded: Form VI	better mechanical stability	–	–	–	–	–	–	–	1.80%	substantially unchanged; also recorded: No form change	good stability	Form VI (the middle	Form VI (the bottom	–	–	–
CCOc1ccc(Cc2cc([C@@H]3O[C@H](SC)[C@@H](O)[C@H](O)[C@H]3O)ccc2Cl)cc1 [Form VII, (2S,3R,4R,5S,6R)-2-(4-chloro-3-(4-ethoxybenzyl)phenyl)-6-(methylthio)tetrahydro-2H-pyran-3,4,5-triol]	irregular massive shape	–	–	–	–	–	–	–	–	200 µg/mL (≈ 471 µM)	150 µg/mL (≈ 353 µM)	–	–	–	–	–	2.5 times	1.5 times	Weight gain under 80% RH ([6]; cycle 0%-95%-0% RH): 1.08%; Form change before and after DVS ([6]; cycle 0%-95%-0% RH): substantially unchanged; also recorded: No form change
CCOc1ccc(Cc2cc([C@@H]3O[C@H](SC)[C@@H](O)[C@H](O)[C@H]3O)ccc2Cl)cc1 [Form VIII, (2S,3R,4R,5S,6R)-2-(4-chloro-3-(4-ethoxybenzyl)phenyl)-6-(methylthio)tetrahydro-2H-pyran-3,4,5-triol]	–	–	–	–	narrow and normal	7.30 μm	36.60 μm	112.4 μm	51.93 μm	180 µg/mL (≈ 424 µM)	–	–	–	–	–	–	–	1.4 times	Weight gain under 80% RH ([6]; cycle 0%-95%-0% RH): 0.60%; Form change before and after DVS ([6]; cycle 0%-95%-0% RH): substantially unchanged; also recorded: No form change
CCOc1ccc(Cc2cc([C@@H]3O[C@H](SC)[C@@H](O)[C@H](O)[C@H]3O)ccc2Cl)cc1 [Sotagliflozin, (2S,3R,4R,5S,6R)-2-(4-chloro-3-(4-ethoxybenzyl)phenyl)-6-(methylthio)tetrahydro-2H-pyran-3,4,5-triol]	–	–	–	–	–	–	–	–	–	–	–	–	–	–	–	–	–	–	Blood sugar (type 1 diabetics): reduction of blood sugar; Glycaemic variability (type 1 diabetics): improvement in glycaemic variability; Meal-time insulin dose (type 1 diabetics): reduced meal-time insulin dose; Blood pressure [9]: blood pressure improvements; Blood sugar [9]: lowering of blood sugar; Weight [9]: weight loss
